The values that follow are results of earlier work, collected in patent publication US11930809B2, “Preservation of biomaterial properties and methods of storing” (LIFELINE SCIENTIFIC, INC., priority 2012, dated 2024).

The test system of data set [1] is chondrocytes in articular cartilage. As to conditions: conventional cryopreservation by freezing in a solution that includes DMSO.
Data set [2] concerns TIMP-1.
The conditions of data set [3]: early Phase clinical studies.

Regarding `C[S+](C)[O-]` [DMSO, dimethyl sulfoxide], in data set [1], the “death of chondrocytes in articular cartilage” value was 80-100%.
As to `COC(=O)C1=CO[C@@H](O)[C@@H]2C(CO)=CC[C@H]12` [genipin], the “expression of TIMP-1” value in data set [2] was “upregulate the expression of TIMP-1”.
Regarding “PCK3145: synthetic peptide corresponding to amino acids 31-45 of prostate secretory protein 94 (EWQTDNCETCTCYET; UniProt P08118 51-65, looked up, fragment)”, the tolerability result in data set [3] is “well tolerated”.
